Measurements published in the supplement of paper PMC10307832.

Columns and labels:
Assay in all cases: relative viability (nuclei count vs DMSO), 5 days (fraction); higher = more cells survive
[1] = compound: CN[C@@H]1C[C@H]2O[C@@](C)([C@@H]1OC)n1c3ccccc3c3c4c(c5c6ccccc6n2c5c31)C(=O)NC4 [Staurosporine] + CS(=O)(=O)CCNCc1ccc(-c2ccc3ncnc(Nc4ccc(OCc5cccc(F)c5)c(Cl)c4)c3c2)o1 [Lapatinib] (partner 2 µM)
Method in brief: (§1)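 Nuclei were stained with Hoechst during a one-step fixation (final 0.05% Triton X-100, 1% formaldehyde, 1 ug/ml Hoechst) carried out 5 days after dosing, then counted on 4× images. The cells, lung cancer lines in 1536-well plates, had been dosed by pin tool the day after seeding with one drug alone or a fixed anchor-drug dose plus five library-drug doses (not always all listed) in √10 steps. Relative viability is the nuclei count in treated wells divided by that in vehicle wells, and each value is the median of duplicate plates.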

[2] = compound: O=c1[nH]cc(F)c(=O)[nH]1 [5-Fluorouracil] + N=C(N)NC(=N)NCCc1ccccc1 [Phenformin] (partner 250 µM)
Method in brief: as §1

[3] = compound: O=c1[nH]cc(F)c(=O)[nH]1 [5-Fluorouracil] + O=C(c1cc(Cc2n[nH]c(=O)c3ccccc23)ccc1F)N1CCN(C(=O)C2CC2)CC1 [Olaparib] (partner 8 µM)
Method in brief: as §1

Sulindac + Phenformin = compound: CC1=C(CC(=O)O)c2cc(F)ccc2/C1=C\c1ccc([S+](C)[O-])cc1 [Sulindac] + N=C(N)NC(=N)NCCc1ccccc1 [Phenformin] (partner 250 µM)
Method in brief: as §1

Cell Line	relative viability ([1]; first compound 0.005 µM)	relative viability ([1]; first compound 0.01581 µM)	relative viability ([1]; first compound 0.05 µM)	relative viability ([1]; first compound 0.1581 µM)	relative viability ([1]; first compound 0.5 µM)	relative viability ([2]; first compound 0.02 µM)	relative viability ([2]; first compound 0.2 µM)	relative viability ([2]; first compound 0.6325 µM)	relative viability ([2]; first compound 2 µM)	relative viability ([3]; first compound 0.02 µM)	relative viability ([3]; first compound 0.2 µM)	relative viability ([3]; first compound 0.6325 µM)	relative viability ([3]; first compound 2 µM)	relative viability (Sulindac + Phenformin; first compound 0.08 µM)	relative viability (Sulindac + Phenformin; first compound 0.8 µM)	relative viability (Sulindac + Phenformin; first compound 2.53 µM)	relative viability (Sulindac + Phenformin; first compound 8 µM)	relative viability (Sulindac + Phenformin; first compound 0.253 µM)
NCI-H23	0.886	0.184	0.357	0.172	0.134	0.686	0.897	0.438	0.298	0.317	0.373	0.256	0.229	0.819	0.61	0.819	0.824	–
NCI-H322M	0.746	0.438	0.484	0.402	0.278	0.857	0.743	0.724	0.541	0.838	0.764	0.618	0.531	0.881	0.668	0.762	0.879	0.833
NCI-H358	0.534	0.378	0.259	0.152	0.136	0.351	0.383	0.313	0.262	0.637	0.686	0.612	0.39	0.362	0.221	0.312	0.385	0.369
NCI-H460	1.08	0.389	0.455	0.0071	0.0093	0.551	0.447	0.109	0.0647	0.326	0.347	0.155	0.105	1.03	0.201	0.543	0.585	0.666
NCI-H520	0.935	0.595	0.514	0.178	0.13	0.525	0.677	0.46	0.442	0.294	0.366	0.33	0.258	0.738	0.412	0.347	0.67	0.949
NCI-H596	1.08	0.749	0.419	0.181	0.157	0.863	0.676	0.643	0.508	0.66	0.694	0.57	0.491	0.839	0.56	0.71	0.771	0.892
NCI-H647	0.603	0.262	0.253	0.0661	0.0597	0.504	0.495	0.544	0.399	0.577	0.501	0.434	0.407	0.647	0.246	0.623	0.645	0.717
NCI-H650	0.503	0.393	0.286	0.245	0.184	0.406	0.339	0.328	0.319	0.282	0.323	0.26	0.293	0.448	0.389	0.471	0.502	0.466
NCI-H661	0.472	0.395	0.266	0.235	0.236	0.274	–	0.284	0.287	0.776	0.8	0.808	0.693	0.244	0.28	0.246	0.277	0.258
NCI-H727	0.666	0.324	0.307	0.388	0.181	0.532	0.472	0.489	0.495	0.748	0.821	0.747	0.593	0.406	–	0.564	0.584	0.554
NCI-H838	0.25	0.164	0.211	0.134	0.103	0.544	0.609	0.364	0.245	0.801	0.691	0.45	0.296	0.519	0.364	0.518	0.6	0.652
NCI-H1355	0.96	0.557	0.272	0.188	0.193	0.431	0.412	0.296	0.297	0.716	0.485	0.253	0.225	0.451	–	0.44	0.46	0.506
NCI-H1395	0.833	0.551	0.487	0.356	0.376	0.426	0.458	0.428	0.494	0.481	0.445	0.557	0.479	0.427	0.478	0.44	0.526	0.448
NCI-H1437	0.698	0.346	0.453	0.152	0.0978	0.238	0.192	0.137	0.173	0.517	0.285	0.222	0.217	0.251	0.197	0.301	0.373	0.321
NCI-H1650	0.575	0.165	0.336	0.151	0.117	0.396	0.444	0.273	0.279	0.797	0.754	0.381	0.229	0.372	–	0.41	0.53	0.481
NCI-H1651	0.708	0.413	0.356	0.107	0.0625	0.395	0.334	0.265	0.341	0.172	0.2	0.188	0.175	0.399	–	0.307	0.362	0.342
